Data reported in ChEMBL document CHEMBL5465560, “Selectivity Literature for EUbOPEN Chemogenomic Library” (2024).

How the values were obtained:
[1] = molecular target: MAP/microtubule affinity-regulating kinase 3 (Homo sapiens) (UniProt P27448); assay: Selectivity interaction (KinomeScan (DiscoverX)) EUB0000229b MARK3; details: at 10 µM
[2] = molecular target: Vascular endothelial growth factor receptor 1 (Homo sapiens) (UniProt P17948); assay: Selectivity interaction (Kinase panel (DSF assay)) EUB0001558a FLT1
Vascular endothelial growth factor receptor 1 (Homo sapiens), sequence (P17948 whole entry): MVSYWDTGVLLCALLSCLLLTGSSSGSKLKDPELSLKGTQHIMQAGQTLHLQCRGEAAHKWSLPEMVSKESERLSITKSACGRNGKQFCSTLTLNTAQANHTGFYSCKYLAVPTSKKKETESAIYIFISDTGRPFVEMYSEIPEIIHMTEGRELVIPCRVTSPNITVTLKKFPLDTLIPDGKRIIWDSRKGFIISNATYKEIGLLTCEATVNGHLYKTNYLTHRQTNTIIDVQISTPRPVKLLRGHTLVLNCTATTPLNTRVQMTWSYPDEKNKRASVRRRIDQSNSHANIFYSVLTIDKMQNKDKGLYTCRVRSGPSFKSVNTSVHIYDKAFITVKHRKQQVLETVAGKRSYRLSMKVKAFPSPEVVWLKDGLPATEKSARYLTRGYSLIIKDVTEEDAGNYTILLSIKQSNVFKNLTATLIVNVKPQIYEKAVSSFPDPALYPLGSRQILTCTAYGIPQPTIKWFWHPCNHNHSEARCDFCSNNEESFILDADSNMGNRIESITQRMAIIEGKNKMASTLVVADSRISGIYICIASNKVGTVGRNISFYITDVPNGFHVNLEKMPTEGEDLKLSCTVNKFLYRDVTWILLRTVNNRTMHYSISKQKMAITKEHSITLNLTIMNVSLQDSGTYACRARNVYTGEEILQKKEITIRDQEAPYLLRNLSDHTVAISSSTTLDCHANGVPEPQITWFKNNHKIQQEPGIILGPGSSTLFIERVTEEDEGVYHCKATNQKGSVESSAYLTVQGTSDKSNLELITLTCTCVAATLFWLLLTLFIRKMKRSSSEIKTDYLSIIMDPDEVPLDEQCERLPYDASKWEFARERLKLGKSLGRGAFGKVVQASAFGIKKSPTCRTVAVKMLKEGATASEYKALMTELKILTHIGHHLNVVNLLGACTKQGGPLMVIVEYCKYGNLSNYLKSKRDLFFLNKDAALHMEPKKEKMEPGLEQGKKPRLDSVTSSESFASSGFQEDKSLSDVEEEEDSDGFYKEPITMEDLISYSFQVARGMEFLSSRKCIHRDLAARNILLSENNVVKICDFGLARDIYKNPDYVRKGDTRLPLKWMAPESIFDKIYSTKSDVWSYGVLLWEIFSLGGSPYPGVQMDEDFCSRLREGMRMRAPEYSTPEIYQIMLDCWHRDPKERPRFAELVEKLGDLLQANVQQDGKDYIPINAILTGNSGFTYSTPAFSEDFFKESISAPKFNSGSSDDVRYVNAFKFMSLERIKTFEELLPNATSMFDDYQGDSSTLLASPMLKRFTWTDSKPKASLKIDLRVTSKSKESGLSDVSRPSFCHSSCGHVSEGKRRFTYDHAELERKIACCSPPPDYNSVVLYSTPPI

[3] = molecular target: T1, Serine/threonine-protein kinase D3 (Homo sapiens) (UniProt O94806); assay: Selectivity interaction (ActivX KiNativ screen (kinase selectivity in THP-1 cell lysates)) EUB0000639a PRKD3; assay type: subcellular; details: lysate, at 0.04 µM
T1 sequence (whole entry): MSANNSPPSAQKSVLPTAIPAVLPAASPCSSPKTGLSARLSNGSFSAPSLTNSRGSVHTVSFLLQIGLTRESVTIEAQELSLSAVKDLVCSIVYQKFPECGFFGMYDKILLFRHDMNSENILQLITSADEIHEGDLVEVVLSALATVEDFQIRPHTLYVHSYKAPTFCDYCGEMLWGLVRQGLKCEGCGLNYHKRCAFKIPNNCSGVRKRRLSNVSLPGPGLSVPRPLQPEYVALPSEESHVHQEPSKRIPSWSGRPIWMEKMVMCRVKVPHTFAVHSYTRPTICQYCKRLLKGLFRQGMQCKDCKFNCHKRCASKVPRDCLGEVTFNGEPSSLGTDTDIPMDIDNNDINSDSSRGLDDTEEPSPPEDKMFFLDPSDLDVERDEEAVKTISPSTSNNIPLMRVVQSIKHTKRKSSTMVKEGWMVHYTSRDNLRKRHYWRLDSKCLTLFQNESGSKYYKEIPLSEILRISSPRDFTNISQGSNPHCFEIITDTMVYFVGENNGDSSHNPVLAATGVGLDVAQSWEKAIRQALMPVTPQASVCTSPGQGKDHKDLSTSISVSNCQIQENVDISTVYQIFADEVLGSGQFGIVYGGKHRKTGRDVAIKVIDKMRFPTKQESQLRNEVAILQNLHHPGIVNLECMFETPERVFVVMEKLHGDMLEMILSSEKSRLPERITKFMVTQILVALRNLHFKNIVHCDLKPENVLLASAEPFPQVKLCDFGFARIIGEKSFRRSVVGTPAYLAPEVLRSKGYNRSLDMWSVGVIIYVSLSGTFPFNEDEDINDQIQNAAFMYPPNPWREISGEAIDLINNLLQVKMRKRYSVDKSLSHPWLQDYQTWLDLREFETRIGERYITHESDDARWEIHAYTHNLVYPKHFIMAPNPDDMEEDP

[4] = molecular target: T2, Mitogen-activated protein kinase kinase kinase 13 (Homo sapiens) (UniProt O43283); assay: Selectivity interaction (KinomeScan (DiscoverX)) EUB0000045b MAP3K13
T2 sequence (whole entry): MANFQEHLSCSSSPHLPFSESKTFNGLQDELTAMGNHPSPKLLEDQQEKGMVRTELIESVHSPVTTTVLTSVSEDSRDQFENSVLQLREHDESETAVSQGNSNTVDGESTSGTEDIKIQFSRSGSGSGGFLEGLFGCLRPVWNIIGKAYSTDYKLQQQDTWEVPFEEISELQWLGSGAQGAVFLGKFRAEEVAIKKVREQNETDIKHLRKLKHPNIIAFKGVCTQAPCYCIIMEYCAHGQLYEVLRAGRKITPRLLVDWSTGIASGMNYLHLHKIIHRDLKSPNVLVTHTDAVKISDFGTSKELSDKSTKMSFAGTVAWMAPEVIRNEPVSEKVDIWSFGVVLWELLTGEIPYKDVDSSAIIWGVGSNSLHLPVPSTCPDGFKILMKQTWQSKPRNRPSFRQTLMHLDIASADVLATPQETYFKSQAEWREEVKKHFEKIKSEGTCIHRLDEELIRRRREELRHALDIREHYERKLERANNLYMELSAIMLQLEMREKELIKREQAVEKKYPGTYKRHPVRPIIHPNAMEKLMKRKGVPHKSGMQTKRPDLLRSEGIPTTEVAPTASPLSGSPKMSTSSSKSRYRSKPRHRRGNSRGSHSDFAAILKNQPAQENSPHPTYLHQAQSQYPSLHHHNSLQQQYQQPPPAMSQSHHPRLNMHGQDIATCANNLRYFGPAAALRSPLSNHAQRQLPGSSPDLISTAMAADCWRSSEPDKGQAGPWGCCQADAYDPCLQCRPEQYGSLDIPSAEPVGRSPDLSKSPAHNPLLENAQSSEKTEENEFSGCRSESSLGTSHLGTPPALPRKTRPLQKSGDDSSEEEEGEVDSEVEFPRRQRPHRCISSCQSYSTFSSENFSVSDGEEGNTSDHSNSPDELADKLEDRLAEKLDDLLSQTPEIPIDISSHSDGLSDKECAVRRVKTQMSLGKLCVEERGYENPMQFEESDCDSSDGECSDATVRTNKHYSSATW

[5] = molecular target: T3, Aurora kinase A (Homo sapiens) (UniProt O14965); assay: Selectivity interaction (KinomeScan (DiscoverX)) EUB0000045b STK6
T3 sequence (whole entry): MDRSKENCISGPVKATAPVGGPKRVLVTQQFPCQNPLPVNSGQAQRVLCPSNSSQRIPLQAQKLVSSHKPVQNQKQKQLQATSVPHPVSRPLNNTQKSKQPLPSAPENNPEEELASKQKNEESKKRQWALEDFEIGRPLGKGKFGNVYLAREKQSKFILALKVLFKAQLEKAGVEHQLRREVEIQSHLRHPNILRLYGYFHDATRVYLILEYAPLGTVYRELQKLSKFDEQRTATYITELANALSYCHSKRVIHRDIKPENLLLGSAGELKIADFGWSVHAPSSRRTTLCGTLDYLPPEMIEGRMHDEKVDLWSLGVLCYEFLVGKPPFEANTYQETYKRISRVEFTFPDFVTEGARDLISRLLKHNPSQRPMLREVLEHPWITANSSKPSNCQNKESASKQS

[6] = molecular target: Ribosomal protein S6 kinase alpha-1 (Homo sapiens, UniProt Q15418); details: at 10 µM
Ribosomal protein S6 kinase alpha-1, sequence (Q15418 whole entry): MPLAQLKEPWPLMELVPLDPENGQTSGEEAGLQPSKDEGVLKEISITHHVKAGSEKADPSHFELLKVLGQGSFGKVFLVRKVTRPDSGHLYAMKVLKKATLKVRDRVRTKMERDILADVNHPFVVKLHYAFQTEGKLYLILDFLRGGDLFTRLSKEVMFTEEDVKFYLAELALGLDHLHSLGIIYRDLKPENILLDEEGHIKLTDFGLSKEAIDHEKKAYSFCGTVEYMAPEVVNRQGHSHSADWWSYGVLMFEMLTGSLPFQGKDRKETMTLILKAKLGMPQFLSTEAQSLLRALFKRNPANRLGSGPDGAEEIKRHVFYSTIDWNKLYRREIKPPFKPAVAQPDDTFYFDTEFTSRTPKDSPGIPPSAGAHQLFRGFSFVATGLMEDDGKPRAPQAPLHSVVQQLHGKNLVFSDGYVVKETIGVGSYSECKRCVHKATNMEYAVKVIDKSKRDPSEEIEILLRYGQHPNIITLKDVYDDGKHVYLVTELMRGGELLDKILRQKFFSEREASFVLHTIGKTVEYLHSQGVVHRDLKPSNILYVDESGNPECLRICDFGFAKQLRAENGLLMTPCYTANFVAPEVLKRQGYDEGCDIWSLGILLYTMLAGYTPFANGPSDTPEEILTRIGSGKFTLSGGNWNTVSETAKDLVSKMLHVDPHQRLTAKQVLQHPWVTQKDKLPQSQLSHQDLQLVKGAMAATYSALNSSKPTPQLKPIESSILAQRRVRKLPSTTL

[7] = molecular target: Mitogen-activated protein kinase 8 (Homo sapiens, UniProt P45983); assay: Selectivity interaction (ActivX KiNativ screen (ex vivo kinase selectivity in human PBMCs)) EUB0001619a MAPK8; assay type: cell-based; details: PBMC, at 1 µM
[8] = molecular target: Tyrosine-protein kinase SYK (Homo sapiens, UniProt P43405); assay: Selectivity interaction (ActivX KiNativ screen (ex vivo kinase selectivity in human PBMCs)) EUB0001619a SYK; assay type: cell-based; details: PBMC, at 1 µM
[9] = molecular target: Serine/threonine-protein kinase WNK3 (Homo sapiens) (UniProt Q9BYP7); assay: Selectivity interaction (KinomeScan (DiscoverX)) EUB0000695a WNK3; details: at 100 nM
Serine/threonine-protein kinase WNK3 (Homo sapiens), sequence (Q9BYP7 whole entry, canonical isoform): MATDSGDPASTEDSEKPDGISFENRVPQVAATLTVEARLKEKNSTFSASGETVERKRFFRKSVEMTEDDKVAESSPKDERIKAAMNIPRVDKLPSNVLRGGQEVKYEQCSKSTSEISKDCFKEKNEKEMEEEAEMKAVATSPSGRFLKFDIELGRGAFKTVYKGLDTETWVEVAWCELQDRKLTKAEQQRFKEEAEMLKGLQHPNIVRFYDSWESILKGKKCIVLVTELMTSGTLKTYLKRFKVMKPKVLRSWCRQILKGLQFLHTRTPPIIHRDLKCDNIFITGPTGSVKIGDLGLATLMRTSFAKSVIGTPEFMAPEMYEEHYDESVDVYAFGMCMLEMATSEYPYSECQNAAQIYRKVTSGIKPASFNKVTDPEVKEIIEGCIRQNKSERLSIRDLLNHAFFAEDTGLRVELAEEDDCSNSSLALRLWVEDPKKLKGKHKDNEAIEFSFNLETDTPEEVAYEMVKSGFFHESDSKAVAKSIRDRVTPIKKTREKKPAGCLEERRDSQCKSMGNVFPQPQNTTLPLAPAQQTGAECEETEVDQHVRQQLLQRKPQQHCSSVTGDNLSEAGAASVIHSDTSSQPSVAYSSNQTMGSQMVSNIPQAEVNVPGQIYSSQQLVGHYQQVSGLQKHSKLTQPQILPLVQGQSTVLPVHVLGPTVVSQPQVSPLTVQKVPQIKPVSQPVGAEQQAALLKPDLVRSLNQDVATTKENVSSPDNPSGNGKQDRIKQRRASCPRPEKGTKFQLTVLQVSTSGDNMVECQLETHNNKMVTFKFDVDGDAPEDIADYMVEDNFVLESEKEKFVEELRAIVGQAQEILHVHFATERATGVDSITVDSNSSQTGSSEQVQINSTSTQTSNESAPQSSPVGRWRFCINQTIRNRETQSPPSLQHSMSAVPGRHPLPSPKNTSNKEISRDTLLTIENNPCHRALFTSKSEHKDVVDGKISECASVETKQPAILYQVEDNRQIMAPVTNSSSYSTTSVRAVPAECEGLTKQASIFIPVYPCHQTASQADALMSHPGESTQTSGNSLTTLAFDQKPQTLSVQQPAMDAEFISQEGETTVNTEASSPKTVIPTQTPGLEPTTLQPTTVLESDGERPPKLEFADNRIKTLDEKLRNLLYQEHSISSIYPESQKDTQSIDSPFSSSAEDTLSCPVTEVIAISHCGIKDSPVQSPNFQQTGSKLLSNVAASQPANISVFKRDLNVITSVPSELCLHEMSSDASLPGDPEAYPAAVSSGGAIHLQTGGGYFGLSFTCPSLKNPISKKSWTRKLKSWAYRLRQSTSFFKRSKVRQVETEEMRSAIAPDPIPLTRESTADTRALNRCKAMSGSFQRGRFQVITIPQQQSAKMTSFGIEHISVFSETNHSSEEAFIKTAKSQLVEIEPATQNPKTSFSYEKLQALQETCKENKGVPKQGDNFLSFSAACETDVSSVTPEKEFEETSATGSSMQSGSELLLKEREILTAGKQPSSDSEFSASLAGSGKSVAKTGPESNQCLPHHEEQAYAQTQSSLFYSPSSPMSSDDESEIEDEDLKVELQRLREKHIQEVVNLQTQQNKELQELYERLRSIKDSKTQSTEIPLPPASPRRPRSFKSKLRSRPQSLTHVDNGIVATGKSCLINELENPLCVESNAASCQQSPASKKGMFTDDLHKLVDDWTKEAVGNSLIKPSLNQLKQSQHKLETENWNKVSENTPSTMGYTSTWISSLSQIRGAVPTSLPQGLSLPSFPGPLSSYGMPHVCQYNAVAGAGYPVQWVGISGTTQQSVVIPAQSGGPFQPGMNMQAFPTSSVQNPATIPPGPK

[10] = molecular target: Phosphatidylinositol 4,5-bisphosphate 3-kinase catalytic subunit gamma isoform (Homo sapiens) (UniProt P48736); assay: Selectivity interaction (Panel of kinases, GPCRs, ion channels and transporters (enzymatic assay)) EUB0000266bCl PIK3CG
Phosphatidylinositol 4,5-bisphosphate 3-kinase catalytic subunit gamma isoform (Homo sapiens), sequence (P48736 whole entry, looked up, canonical isoform): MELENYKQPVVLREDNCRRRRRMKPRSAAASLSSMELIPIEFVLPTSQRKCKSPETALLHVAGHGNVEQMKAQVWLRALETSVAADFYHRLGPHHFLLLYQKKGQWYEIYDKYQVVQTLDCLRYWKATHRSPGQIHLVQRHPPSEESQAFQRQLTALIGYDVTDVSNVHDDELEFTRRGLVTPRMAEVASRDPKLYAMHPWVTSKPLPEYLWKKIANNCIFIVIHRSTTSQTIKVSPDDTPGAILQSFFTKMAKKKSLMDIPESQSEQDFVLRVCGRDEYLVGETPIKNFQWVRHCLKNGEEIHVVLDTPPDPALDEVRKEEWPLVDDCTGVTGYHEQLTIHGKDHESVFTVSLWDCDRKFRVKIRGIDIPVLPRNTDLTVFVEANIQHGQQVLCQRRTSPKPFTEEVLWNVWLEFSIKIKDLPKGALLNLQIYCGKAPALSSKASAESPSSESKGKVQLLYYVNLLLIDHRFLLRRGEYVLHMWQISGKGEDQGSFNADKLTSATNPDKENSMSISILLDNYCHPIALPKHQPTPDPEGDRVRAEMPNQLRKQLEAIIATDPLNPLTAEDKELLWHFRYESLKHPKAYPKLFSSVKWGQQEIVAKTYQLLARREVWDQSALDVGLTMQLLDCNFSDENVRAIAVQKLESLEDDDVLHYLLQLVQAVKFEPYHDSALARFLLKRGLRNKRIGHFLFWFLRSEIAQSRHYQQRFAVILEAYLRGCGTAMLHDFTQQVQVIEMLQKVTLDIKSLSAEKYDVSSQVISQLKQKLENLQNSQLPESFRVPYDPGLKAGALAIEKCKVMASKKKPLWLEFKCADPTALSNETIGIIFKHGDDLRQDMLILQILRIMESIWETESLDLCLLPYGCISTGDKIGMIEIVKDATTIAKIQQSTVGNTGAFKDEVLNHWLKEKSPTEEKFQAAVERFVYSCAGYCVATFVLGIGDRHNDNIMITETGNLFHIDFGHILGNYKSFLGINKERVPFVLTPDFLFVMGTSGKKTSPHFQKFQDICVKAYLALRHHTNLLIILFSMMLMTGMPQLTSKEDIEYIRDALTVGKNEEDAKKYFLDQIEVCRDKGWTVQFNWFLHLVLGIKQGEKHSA

[11] = tested on: Tyrosine-protein kinase ABL1 (Homo sapiens), P00519 [H396P]; assay: Selectivity interaction (KinomeScan (DiscoverX)) EUB0000607a ABL1; details: at 10 µM

COc1cc(N(C)c2ccnc3ccc(C(F)(F)F)cc23)cc(OC)c1OC
% binding [1]: 100%

CC(C)(O)[C@H](F)CN1Cc2cc(NC(=O)c3cnn4cccnc34)c(N3CCOCC3)cc2C1=O
dTM [2]: 3.3 K

CC[C@@H]1[C@H](F)C(=O)N[C@@H]1COc1nccc2cc(C(N)=O)c(OC)cc12 [ZIMLOVISERTIB]
% of inhibition [3]: 3.3%

C=CC(=O)Nc1cc(-n2c(=O)ccc3cnc4ccc(-c5ccc(NS(C)(=O)=O)cc5)cc4c32)ccc1C
% of control ([4]; at 1 µM): 100% | % of control ([4]; at 10 µM): 100% | % of control ([5]; at 1 µM): 75% | % of control ([5]; at 10 µM): 100%

Cc1cc([C@@H](C)Nc2ccccc2C(=O)O)c2nc(N3CCOCC3)cc(=O)n2c1 [AZD-6482]
% of control [6]: 84%

N#Cc1cccc(-c2c[nH]c3ncnc(N4CCOCC4)c23)c1
% of inhibition [7]: 5% | % of inhibition [8]: 0%

Cc1cc(F)c(C(=O)Nc2cccc(-c3nncn3C(C)C)n2)cc1-n1cnc(C2CC2)c1
% of control [9]: 100%

CCn1c(-c2nc3cc(C(=O)N4CCCC(N)C4)ccc3n2C)cc2ccccc21 (stereo not drawn)
pXC50 [10]: < 4.5 M

CNC(=O)Nc1ccc(-c2nc(N3CC4CCC(C3)O4)c3cnn(C4CCC5(CC4)OCCO5)c3n2)cc1
% of control [11]: 100%
